Like-named read-outs stand apart in the source and are kept apart here. Non-standard residues stand in square brackets, D forms with d. Residues, ends and D or L forms follow the SMILES beside them. *: point of attachment. Sta = CC(C)C[C@H](N)[C@@H](O)CC(=O)O; Isovaleryl = CC(C)CC(=O)*
How the values were obtained:
Plasmepsin V (PM-V) = Plasmepsin V (PM-V) (Plasmodium falciparum (isolate 3D7), UniProt Q8I6Z5); conditions: known inhibitors, background; cited from earlier work
[1] = tested on: Plasmodium chabaudi ASS and ASCQ strains; test: In vivo antimalarial efficacy 4-day suppressive test; conditions: NIH mice, 4.5 mpk orally once daily for four days, Day 4 postinoculation
Method: Briefly, NIH mice (n=8 per group) were inoculated i.p. with 2×10^7 parasitized (Plasmodium chabaudi ASS or ASCQ) red blood cells. […] Groups (n=6) including a vehicle control and chloroquine (CQ) as a reference drug were included. Parasitemia levels were determined on the day following the last treatment (Day 4).

[2] = tested on: Plasmodium falciparum 3D7 (CQ-sensitive); test: In vitro antimalarial assay (malaria SYBR Green I-based fluorescence, MSF), 3D7; format: cell-based
Method in brief: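 Asynchronous P. falciparum 3D7 cultures (0.5% parasitemia, 2% hematocrit) were exposed to serially diluted compounds, in quadruplicate. Growth was then quantified by SYBR Green I fluorescence after adding lysis buffer containing 0.2 μL/mL dye.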

[3] = target: Plasmepsin-2 (PM-2; Plm II) (Plasmodium falciparum (isolate HB3), UniProt P46925); test: Plasmepsin-2 enzyme inhibition assay; format: biochemical
Plasmepsin-2 (PM-2; Plm II), sequence (P46925 125-453 limits assumed): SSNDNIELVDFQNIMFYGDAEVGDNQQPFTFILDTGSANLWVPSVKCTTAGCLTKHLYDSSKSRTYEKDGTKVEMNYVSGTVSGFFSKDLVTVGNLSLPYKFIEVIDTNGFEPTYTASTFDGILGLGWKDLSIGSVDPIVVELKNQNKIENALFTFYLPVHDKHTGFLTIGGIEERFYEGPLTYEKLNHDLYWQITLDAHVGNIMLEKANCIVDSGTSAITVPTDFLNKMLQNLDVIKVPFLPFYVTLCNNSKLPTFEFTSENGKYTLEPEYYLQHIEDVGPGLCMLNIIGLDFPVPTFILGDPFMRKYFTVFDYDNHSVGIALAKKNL
Method in brief: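 Enzymes activated in pH 4.5 citrate/DTT buffer, then assayed in 50 mM sodium acetate pH 4.7, 0.01% Tween-20. Compounds added before fluorogenic peptide substrate (final 20 µM); 60 min at room temperature, fluorescence Ex/Em 360/535 nm, IC50 by curve fit.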

[4] = target: Plasmepsin (PM-4; Plm IV) (Plasmodium falciparum (isolate 3D7), UniProt Q8IM16); test: Plasmepsin-4 enzyme inhibition assay; format: biochemical; conditions: Table 8
Plasmepsin (PM-4; Plm IV), sequence (Q8IM16 122-449 limits assumed): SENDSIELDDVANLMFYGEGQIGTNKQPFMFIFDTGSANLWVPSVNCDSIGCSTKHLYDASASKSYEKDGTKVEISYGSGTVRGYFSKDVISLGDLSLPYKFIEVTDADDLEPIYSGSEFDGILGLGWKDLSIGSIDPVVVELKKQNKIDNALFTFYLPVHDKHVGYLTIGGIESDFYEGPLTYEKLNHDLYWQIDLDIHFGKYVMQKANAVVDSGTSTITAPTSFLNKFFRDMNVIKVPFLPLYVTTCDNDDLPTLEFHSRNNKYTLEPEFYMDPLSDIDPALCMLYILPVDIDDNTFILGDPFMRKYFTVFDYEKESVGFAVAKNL
Method: Plasmepsin-2 (PM-2; Plm II) and Plasmepsin (PM-4; Plm IV) expression and purification was performed following the published protocols (Istvan E S and Goldberg D E, 2005). The final purified protein was activated by diluting the protein to 0.3 mg/mL in activating buffer (0.1 M citrate pH 4.5, 0.1% Tween-20, 50 mM dithiothreitol) and incubated at room temperature for 40 min, then the activated enzyme was diluted in assay buffer (50 mM sodium acetate pH 4.7, 0.01% Tween-20). The enzymatic inhibition reaction was performed in 384 well plates with a total volume of 20 μl. 10 μl of diluted PM-2 or PM-4 enzyme was added to the 384-well plate except blank wells (blank wells add 10 μL of assay buffer) and 20 nL of serials of diluted 1000× compounds were added to the wells with 520 Echo® Liquid Handling System (Labcyte Inc.). 10 μL PM-2 peptide substrate (AnaSpec, Cat#, 62050) with assay buffer was then added to final concentration of 20 μM to start the reaction. After incubation the reaction at room temperature for 60 min, the fluorescence intensity at Ex/Em=360 nm/535 nm was measured using EnVision multilabel plate reader (Perkin-Elmer). The IC50 values were obtained using Graph Pad Prism 4 and are reported in Tables 8 and 9 below as PM-2 IC50 values.

recombinant human BACE1 [5] = target: recombinant human BACE1 (Homo sapiens, UniProt P56817); test: β-Secretase (BACE1) enzyme inhibition FRET assay; format: biochemical
recombinant human BACE1 (Homo sapiens, UniProt P56817), sequence (P56817 46-501 limits assumed): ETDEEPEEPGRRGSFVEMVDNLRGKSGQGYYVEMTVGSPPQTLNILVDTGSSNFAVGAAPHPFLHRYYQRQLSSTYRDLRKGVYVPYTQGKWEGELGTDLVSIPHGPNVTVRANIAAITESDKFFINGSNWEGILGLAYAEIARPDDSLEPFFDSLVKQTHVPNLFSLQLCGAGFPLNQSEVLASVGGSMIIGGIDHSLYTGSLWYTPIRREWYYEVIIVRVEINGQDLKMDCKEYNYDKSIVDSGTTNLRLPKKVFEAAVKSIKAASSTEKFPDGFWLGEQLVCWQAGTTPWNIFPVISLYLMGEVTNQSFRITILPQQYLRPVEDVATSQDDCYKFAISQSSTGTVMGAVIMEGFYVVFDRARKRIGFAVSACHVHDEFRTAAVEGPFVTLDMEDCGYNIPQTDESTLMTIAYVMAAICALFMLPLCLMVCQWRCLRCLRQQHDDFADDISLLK
Method: (§1) The enzymatic inhibition activity assays were determined using the fluorescence resonance energy transfer (FRET) assay. The assays were performed in a 384-well plate format. […] CatD and CatE were activated by incubation in assay buffer (0.1 M NaOAc, 0.2 M NaCl, pH 3.5) at room temperature for 30 min. Subsequently, the rhBACE-1 substrate (R&D Systems, catalog# ES004), the Cathepsin D and Cathepsin E substrate (R&D Systems, Catalog # ES001) were added accordingly to final concentration 20 μM to initiate the reaction. After 60 min incubation at room temperature, the time-resolved fluorescence at Ex/Em=360 nm/460 nm was measured on an EnVision multilabel plate reader (Perkin-Elmer). The analytical software, GraphPad Prism 5.0 (GraphPad Software, Inc., USA) was used to generate IC50 values via non-linear regression analysis, which are reported in Tables 8-13 below as BACE1 IC50 values.

recombinant human BACE1 [6] = test: β-Secretase (BACE1) enzyme inhibition FRET assay; format: biochemical
Method: as §1

[7] = target: recombinant human Cathepsin D (Homo sapiens (Human), UniProt P07339); test: Cathepsin D enzyme inhibition FRET assay; format: biochemical
recombinant human Cathepsin D, sequence (P07339 65-412): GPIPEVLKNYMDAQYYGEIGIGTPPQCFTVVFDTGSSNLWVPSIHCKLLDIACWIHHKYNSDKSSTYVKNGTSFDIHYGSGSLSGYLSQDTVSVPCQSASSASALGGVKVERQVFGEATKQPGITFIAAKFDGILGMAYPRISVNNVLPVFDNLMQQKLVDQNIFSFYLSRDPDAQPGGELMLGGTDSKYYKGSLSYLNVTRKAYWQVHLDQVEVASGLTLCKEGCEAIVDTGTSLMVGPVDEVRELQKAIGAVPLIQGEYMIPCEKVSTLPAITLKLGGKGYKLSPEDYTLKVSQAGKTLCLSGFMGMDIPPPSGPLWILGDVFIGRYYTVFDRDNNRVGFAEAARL
Method: (§2) The enzymatic inhibition activity assays were determined using the fluorescence resonance energy transfer (FRET) assay. The assays were performed in a 384-well plate format. […] The concentration of Cathepsin D was 20 ng/μL, and 1 ng/μL of Cathepsin E was used. CatD and CatE were activated by incubation in assay buffer (0.1 M NaOAc, 0.2 M NaCl, pH 3.5) at room temperature for 30 min. Subsequently, the rhBACE-1 substrate (R&D Systems, catalog# ES004), the Cathepsin D and Cathepsin E substrate (R&D Systems, Catalog # ES001) were added accordingly to final concentration 20 μM to initiate the reaction. After 60 min incubation at room temperature, the time-resolved fluorescence at Ex/Em=360 nm/460 nm was measured on an EnVision multilabel plate reader (Perkin-Elmer). The analytical software, GraphPad Prism 5.0 (GraphPad Software, Inc., USA) was used to generate IC50 values via non-linear regression analysis, which are reported in Tables 8-13 below as BACE1 IC50 values.

[8] = target: recombinant human Cathepsin E (Homo sapiens (Human), UniProt P14091); test: Cathepsin E enzyme inhibition FRET assay; format: biochemical; conditions: Table 8; read-out: CatE IC50
recombinant human Cathepsin E, sequence (P14091 54-396): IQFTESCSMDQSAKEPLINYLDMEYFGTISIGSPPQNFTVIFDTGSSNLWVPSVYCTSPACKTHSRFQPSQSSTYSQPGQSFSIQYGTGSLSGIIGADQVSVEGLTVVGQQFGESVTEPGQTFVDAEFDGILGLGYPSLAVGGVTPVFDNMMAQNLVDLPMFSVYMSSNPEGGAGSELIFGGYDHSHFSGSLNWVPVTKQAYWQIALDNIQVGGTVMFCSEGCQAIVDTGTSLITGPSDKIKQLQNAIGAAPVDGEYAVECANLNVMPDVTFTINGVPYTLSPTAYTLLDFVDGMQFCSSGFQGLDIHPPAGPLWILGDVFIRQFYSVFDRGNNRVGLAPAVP
Method: as §2

[9] = tested on: Plasmodium falciparum Dd2 (multi-drug resistant); test: In vitro antimalarial assay (malaria SYBR Green I-based fluorescence, MSF), Dd2; format: cell-based; conditions: DD2, read-out: Dd2 IC50 (μM)
Method: In vitro antimalarial activity was determined by a malaria SYBR Green I-based fluorescence (MSF) method described previously by Smilkstein et al. (2004, which is incorporated herein by reference) with slight modification (Winter, et al., 2006, which is incorporated herein by reference). Stock solutions of each test drug were prepared in DMSO at a concentration of 20 mM. The drug solutions were serially diluted with culture medium and distributed to asynchronous parasite cultures on 96-well plates in quadruplicate in a total volume of 100 μL to achieve 0.5% parasitemia with a 2% hematocrit in a total volume of 100 pt. The plates were then incubated for 72 h at 37° C. After incubation, 100 μL of lysis buffer with 0.2 μL/mL SYBR Green I was added to each well. The plates were incubated at 37° C. for an hour in the dark and then placed in a 96-well fluorescence plate reader (Spectramax Gemini-EM; Molecular Diagnostics) with excitation and emission wavelengths at 497 nm and 520 nm, respectively, for measurement of fluorescence.
Antimalarial potency of compounds was determined by this technique for both Plasmodium falciparum 3D7 (CQ-sensitive) and Dd2 (multi-drug resistant) strains.

[10] = 3D7, read-out: 3D7 IC50 (μM), Table 13

In the case of `CC(C)CC(=O)N[C@H](C(=O)N[C@H](C(=O)N[C@@H](CC(C)C)[C@@H](O)CC(=O)N[C@@H](C)C(=O)N[C@@H](CC(C)C)[C@@H](O)CC(=O)O)C(C)C)C(C)C` [pepstatin A] (Isovaleryl-VV[Sta]A[Sta]-OH), the IC50 (Plasmepsin V (PM-V)) is listed as greater than 20000 nM.
For `CCN(CC)CCCC(C)Nc1ccnc2cc(Cl)ccc12` (stereo not drawn) [CQ, chloroquine, reference compound], the “% Inhibition of parasitemia” value [1] was 99.99%.
For `Cc1cccc(C)c1OCC(=O)N[C@@H](Cc1ccccc1)[C@@H](O)C[C@H](Cc1ccccc1)NC(=O)[C@H](C(C)C)N1CCCNC1=O` [lopinavir], the IC50 (Plasmepsin V (PM-V)) is listed as greater than 20000 nM.
Compound `N=C1NC(c2ccccc2)(c2cccc(-c3cccnc3)c2)C(=O)N1C1CCCCC1` (stereo not drawn) [Example 136, 3-cyclohexyl-2-imino-5-phenyl-5-[3-(pyridin-3-yl)-phenyl]imidazolidin-4-one] has an IC50 ([2]; 3D7, read-out: 3D7 IC50 (μM), Table 12) of 0.75 µM, an IC50 [2, 10] of 0.75 µM and an IC50 ([2]; 3D7, read-out: Pf 3D7 IC50 (μM), Table 11) of 0.75 µM. For the same compound, the IC50 ([2]; 3D7, read-out: Pf 3D7 IC50, Table 8) was 0.75 µM, the IC50 ([3]; Table 8, read-out: PM-II IC50) was 13 nM and the IC50 ([3]; Table 12, read-out: PM-2 IC50) was 13 nM. The IC50 ([3]; Table 13, read-out: PM-2 IC50) was 13 nM, the IC50 [4] was 31 nM and the IC50 (recombinant human BACE1 [5]; Table 8, read-out: BACE IC50) was 1680 nM. For the same compound, the IC50 (recombinant human BACE1 [5]; Table 12, read-out: BACE1 IC50) was 18100 nM, the IC50 (recombinant human BACE1 [5]; Table 13, read-out: BACE1 IC50) was 18100 nM and the “selectivity for PM-II over BACE” value (recombinant human BACE1 [6]) was greater than 1000 fold. The “BACE1/PM2 Ratio” value (recombinant human BACE1 [6]; ratio of BACE1 IC50 to PM-2 IC50) was 1392, the “selectivity for PM-II over CatD” value [7] was greater than 1000 fold and the IC50 ([7]; Table 8, read-out: CatD IC50) was greater than 10000 nM. The IC50 [8] was greater than 10000 nM.
Work on `COc1ccc(C2(c3ccc(OC)cc3)NC(=N)N(CC3CCCCC3)C2=O)cc1` [Example 221, 3-(cyclohexylmethyl)-2-imino-5,5-bis(4-methoxyphenyl)-imidazolidin-4-one] yielded an IC50 [2, 10] of 0.207 µM, an IC50 ([2]; 3D7, read-out: Pf3D7 IC50 (μM), Table 10) of 0.383 µM and an IC50 [9] of 0.367 µM. The IC50 ([3]; Table 13, read-out: PM-2 IC50) was 2.39 nM and the IC50 (recombinant human BACE1 [5]; Table 13, read-out: BACE1 IC50) was 6010 nM.

Source: US9353089B2, “Compositions and methods for the treatment of malaria” (Saint Louis University, priority 2013, dated 2016)
